Experimental data reported in patent publication US7244431B2, “Allergy vaccines and their preparation” (priority 2000, dated 2007).

How the values were obtained:
[1] = tested on: IgE antibodies in sera from birch pollen allergic patients; test: ELISA detection of peptide- and rBet v 1-specific IgE antibodies; format: binding, human
How it was run: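 IgE binding detected by 1:1000 alkaline-phosphatase mouse monoclonal anti-human IgE after overnight 4 °C incubation with 1:3-diluted sera. Sera came from 60 birch pollen allergic patients (25 male, 35 female, age 19–60) and a non-atopic control.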

[2] = tested on: birch pollen allergic patients; test: Skin prick testing of allergic patients; format: in vivo, human; settings: 100 μg/ml
Protocol: SPTs were performed on the individuals forearms as described ([…]. et al. (1997) J. Clin Invest. 99, 1673-168; Dreborg S: (1989) J. Am. Acad. DerMatol. 21, 820-821). […] In addition standardized skin prick solutions (birch pollen extract and histamine) (Allergopharma, Reinbek, Germany) were tested. Reactions were recorded 20 minutes after SPT by photography and by transferring the ballpoint pen-surrounded wheal area with a scotch tape to paper.

**Q.** With “MGVFNYETETTSVIPAARLFKAFIC [Peptide P1, Bet v 1-derived synthetic peptide, position aa 1-24, one cysteine added]” as the sequence, how does the “IgE (OD)” value ([1]; serum of NHS, non-allergic control individual) read?
**A.** — (Dashes indicate reactivities below the cut-off level (OD=0.050))

**Q.** And the “IgE (OD)” value ([1]; serum of patient 1)?
**A.** — (Dashes indicate reactivities below the cut-off level (OD=0.050))

**Q.** And the “IgE (OD)” value ([1]; serum of patient 2)?
**A.** — (Dashes indicate reactivities below the cut-off level (OD=0.050))

**Q.** And the “IgE (OD)” value ([1]; serum of patient 3)?
**A.** — (Dashes indicate reactivities below the cut-off level (OD=0.050))

**Q.** What about the “IgE (OD)” value ([1]; serum of patient 4) of the same sequence?
**A.** — (Dashes indicate reactivities below the cut-off level (OD=0.050))

**Q.** What about the “IgE (OD)” value ([1]; serum of patient 5) of the same sequence?
**A.** — (Dashes indicate reactivities below the cut-off level (OD=0.050))

**Q.** And the “IgE (OD)” value ([1]; serum of patient 6)?
**A.** — (Dashes indicate reactivities below the cut-off level (OD=0.050))

**Q.** And the “IgE (OD)” value ([1]; serum of patient 7)?
**A.** — (Dashes indicate reactivities below the cut-off level (OD=0.050))

**Q.** What about the “IgE (OD)” value ([1]; serum of patient 8) of the same sequence?
**A.** — (Dashes indicate reactivities below the cut-off level (OD=0.050))

**Q.** What about the “IgE (OD)” value ([1]; serum of patient 9) of the same sequence?
**A.** — (Dashes indicate reactivities below the cut-off level (OD=0.050))

**Q.** And the “IgE (OD)” value ([1]; serum of patient 10)?
**A.** — (Dashes indicate reactivities below the cut-off level (OD=0.050))

**Q.** What about the “IgE (OD)” value ([1]; serum of patient 11) of the same sequence?
**A.** — (Dashes indicate reactivities below the cut-off level (OD=0.050))

**Q.** And the “IgE (OD)” value ([1]; serum of patient 12)?
**A.** — (Dashes indicate reactivities below the cut-off level (OD=0.050))

**Q.** What about the “IgE (OD)” value ([1]; serum of patient 13) of the same sequence?
**A.** — (Dashes indicate reactivities below the cut-off level (OD=0.050))

**Q.** And the “IgE (OD)” value ([1]; serum of patient 14)?
**A.** — (Dashes indicate reactivities below the cut-off level (OD=0.050))

**Q.** What about the “IgE (OD)” value ([1]; serum of patient 15) of the same sequence?
**A.** — (Dashes indicate reactivities below the cut-off level (OD=0.050))

**Q.** And the “IgE (OD)” value ([1]; serum of patient 16)?
**A.** — (Dashes indicate reactivities below the cut-off level (OD=0.050))

**Q.** What about the “IgE (OD)” value ([1]; serum of patient 17) of the same sequence?
**A.** — (Dashes indicate reactivities below the cut-off level (OD=0.050))

**Q.** And the “IgE (OD)” value ([1]; serum of patient 18)?
**A.** — (Dashes indicate reactivities below the cut-off level (OD=0.050))

**Q.** What about the “IgE (OD)” value ([1]; serum of patient 19) of the same sequence?
**A.** — (Dashes indicate reactivities below the cut-off level (OD=0.050))

**Q.** What about the “IgE (OD)” value ([1]; serum of patient 20) of the same sequence?
**A.** — (Dashes indicate reactivities below the cut-off level (OD=0.050))

**Q.** What about the “IgE (OD)” value ([1]; serum of patient 21) of the same sequence?
**A.** — (Dashes indicate reactivities below the cut-off level (OD=0.050))

**Q.** What about the “IgE (OD)” value ([1]; serum of patient 22) of the same sequence?
**A.** — (Dashes indicate reactivities below the cut-off level (OD=0.050))

**Q.** And the “IgE (OD)” value ([1]; serum of patient 23)?
**A.** — (Dashes indicate reactivities below the cut-off level (OD=0.050))

**Q.** What about the “IgE (OD)” value ([1]; serum of patient 24) of the same sequence?
**A.** — (Dashes indicate reactivities below the cut-off level (OD=0.050))

**Q.** And the “IgE (OD)” value ([1]; serum of patient 25)?
**A.** — (Dashes indicate reactivities below the cut-off level (OD=0.050))

**Q.** And the “IgE (OD)” value ([1]; serum of patient 26)?
**A.** — (Dashes indicate reactivities below the cut-off level (OD=0.050))

**Q.** And the “IgE (OD)” value ([1]; serum of patient 27)?
**A.** — (Dashes indicate reactivities below the cut-off level (OD=0.050))

**Q.** What about the “IgE (OD)” value ([1]; serum of patient 28) of the same sequence?
**A.** — (Dashes indicate reactivities below the cut-off level (OD=0.050))

**Q.** What about the “IgE (OD)” value ([1]; serum of patient 29) of the same sequence?
**A.** — (Dashes indicate reactivities below the cut-off level (OD=0.050))

**Q.** What about the “IgE (OD)” value ([1]; serum of patient 30) of the same sequence?
**A.** — (Dashes indicate reactivities below the cut-off level (OD=0.050))

**Q.** What about the “IgE (OD)” value ([1]; serum of patient 31) of the same sequence?
**A.** — (Dashes indicate reactivities below the cut-off level (OD=0.050))

**Q.** What about the “IgE (OD)” value ([1]; serum of patient 32) of the same sequence?
**A.** — (Dashes indicate reactivities below the cut-off level (OD=0.050))

**Q.** And the “IgE (OD)” value ([1]; serum of patient 33)?
**A.** — (Dashes indicate reactivities below the cut-off level (OD=0.050))

**Q.** And the “IgE (OD)” value ([1]; serum of patient 34)?
**A.** — (Dashes indicate reactivities below the cut-off level (OD=0.050))

**Q.** What about the “IgE (OD)” value ([1]; serum of patient 35) of the same sequence?
**A.** — (Dashes indicate reactivities below the cut-off level (OD=0.050))

**Q.** What about the “IgE (OD)” value ([1]; serum of patient 36) of the same sequence?
**A.** — (Dashes indicate reactivities below the cut-off level (OD=0.050))

**Q.** And the “IgE (OD)” value ([1]; serum of patient 37)?
**A.** — (Dashes indicate reactivities below the cut-off level (OD=0.050))

**Q.** What about the “IgE (OD)” value ([1]; serum of patient 38) of the same sequence?
**A.** — (Dashes indicate reactivities below the cut-off level (OD=0.050))

**Q.** What about the “IgE (OD)” value ([1]; serum of patient 39) of the same sequence?
**A.** — (Dashes indicate reactivities below the cut-off level (OD=0.050))

**Q.** What about the “IgE (OD)” value ([1]; serum of patient 40) of the same sequence?
**A.** — (Dashes indicate reactivities below the cut-off level (OD=0.050))

**Q.** And the “IgE (OD)” value ([1]; serum of patient 41)?
**A.** — (Dashes indicate reactivities below the cut-off level (OD=0.050))

**Q.** And the “IgE (OD)” value ([1]; serum of patient 42)?
**A.** — (Dashes indicate reactivities below the cut-off level (OD=0.050))

**Q.** And the “IgE (OD)” value ([1]; serum of patient 43)?
**A.** — (Dashes indicate reactivities below the cut-off level (OD=0.050))

**Q.** And the “IgE (OD)” value ([1]; serum of patient 44)?
**A.** — (Dashes indicate reactivities below the cut-off level (OD=0.050))

**Q.** And the “IgE (OD)” value ([1]; serum of patient 45)?
**A.** — (Dashes indicate reactivities below the cut-off level (OD=0.050))

**Q.** What about the “IgE (OD)” value ([1]; serum of patient 46) of the same sequence?
**A.** — (Dashes indicate reactivities below the cut-off level (OD=0.050))

**Q.** And the “IgE (OD)” value ([1]; serum of patient 47)?
**A.** — (Dashes indicate reactivities below the cut-off level (OD=0.050))

**Q.** What about the “IgE (OD)” value ([1]; serum of patient 48) of the same sequence?
**A.** — (Dashes indicate reactivities below the cut-off level (OD=0.050))

**Q.** And the “IgE (OD)” value ([1]; serum of patient 49)?
**A.** — (Dashes indicate reactivities below the cut-off level (OD=0.050))

**Q.** And the “IgE (OD)” value ([1]; serum of patient 50)?
**A.** — (Dashes indicate reactivities below the cut-off level (OD=0.050))

**Q.** What about the “IgE (OD)” value ([1]; serum of patient 51) of the same sequence?
**A.** — (Dashes indicate reactivities below the cut-off level (OD=0.050))

**Q.** What about the “IgE (OD)” value ([1]; serum of patient 52) of the same sequence?
**A.** — (Dashes indicate reactivities below the cut-off level (OD=0.050))

**Q.** And the “IgE (OD)” value ([1]; serum of patient 53)?
**A.** — (Dashes indicate reactivities below the cut-off level (OD=0.050))

**Q.** What about the “IgE (OD)” value ([1]; serum of patient 54) of the same sequence?
**A.** — (Dashes indicate reactivities below the cut-off level (OD=0.050))

**Q.** What about the “IgE (OD)” value ([1]; serum of patient 55) of the same sequence?
**A.** — (Dashes indicate reactivities below the cut-off level (OD=0.050))

**Q.** What about the “IgE (OD)” value ([1]; serum of patient 56) of the same sequence?
**A.** — (Dashes indicate reactivities below the cut-off level (OD=0.050))

**Q.** And the “IgE (OD)” value ([1]; serum of patient 57)?
**A.** — (Dashes indicate reactivities below the cut-off level (OD=0.050))

**Q.** What about the “IgE (OD)” value ([1]; serum of patient 58) of the same sequence?
**A.** — (Dashes indicate reactivities below the cut-off level (OD=0.050))

**Q.** And the “IgE (OD)” value ([1]; serum of patient 59)?
**A.** — (Dashes indicate reactivities below the cut-off level (OD=0.050))

**Q.** What about the “IgE (OD)” value ([1]; serum of patient 60) of the same sequence?
**A.** — (Dashes indicate reactivities below the cut-off level (OD=0.050))

**Q.** And the mean wheal diameter ([2]; individual 1)?
**A.** 0 mm

**Q.** What about the mean wheal diameter ([2]; individual 2) of the same sequence?
**A.** 0 mm

**Q.** And the mean wheal diameter ([2]; individual 3)?
**A.** 0 mm

**Q.** What about the mean wheal diameter ([2]; individual 4) of the same sequence?
**A.** 0 mm

**Q.** And the mean wheal diameter ([2]; individual 5)?
**A.** 0 mm

**Q.** What about the mean wheal diameter ([2]; individual 6 (allergic, without birch pollen allergy)) of the same sequence?
**A.** 0 mm
